Results reported in patent publication US20100249373A1, “SCREENING METHODS” (priority 2007, published 2010).

What was measured:
[1] = system: NCKX5; assay: Western blot of NCKX5 protein after siRNA knockdown in human melanocytes; type: cell-based; details: 5 days after siRNA mediated knockdown; anti C-terminus pAb; FIG. 28
Protocol: FIG. 28—Western blot analysis of NCK5 after knockdown. Using Western blotting we have investigated NCKX5 protein expression 5 days after siRNA mediated knockdown (all 5 siRNA duplexes and controls were tested). Western blot was also used to evaluate the expression and processing (maturation) of tyrosinase (tyr) in the same samples. SDS-PAGE (10% PA for NCKX5, 4-12% for tyr, 5 μg protein/lane). A) Western blot for NCKX5: Detection via rabbit anti-NCKX5 pAb (anti C-terminus peptide). B) Western blot for tyr, via goat pAb (Santa Cruz). 1=No treatment, 2=scrambled siRNA control, 3-7=siRNA's 185, 260, 301, 492, 1110. […] These bands are absent in the samples where SLC24A5-specific duplexes were used (lanes 3-7). It is possible that the doublet represents the presence of alternate SLC24A5 splice variants.
Cultured Cells (trypsinised off of 6-well culture plates) were lysed on ice for 20 minutes in 1.5 ml eppendorfs using 100 μl per sample of 1% triton X-100 in dPBS containing protease inhibitor cocktail (Sigma-Aldrich, Poole, UK). Cell extracts were centrifuged (10 minutes at 13000 g) to separate melanin and cell debris from the solubilised protein. The protein concentration of each supernatant fraction was determined by BCA assay as described in A).
20 μg protein (as determined by BCA assay) was reconstituted into 20 μl of 1×LDS loading buffer (Invitrogen Ltd, Paisley, UK) containing 1× reducing agent (Invitrogen Ltd, Paisley, UK), heated to 40° C. for 30 minutes and loaded onto 10% Novex bis-tris acrylamide gels with 1×MOPS running buffer (Invitrogen Ltd, Paisley, UK). Kaleidoscope molecular weight markers (Bio-Rad Laboratories Ltd, Hemel Hempstead, UK) were run alongside samples for size determinations. Protein was transferred onto PVDF membrane by electrophoresis transfer, using a Bio-Rad mini-cell II trans-blotter and 1×Tris-Glycine transfer buffer (Invitrogen Ltd, Paisley, UK)+15% v/v methanol (100V for 1 hour).
Membranes containing transferred protein were “blocked” using 2% w/v skimmed milk protein (SMP) in PBS+0.05% tween20 (PBST) for 1 hour with gentle agitation. Peptide affinity purified rabbit polyclonal antibody (raised using a peptide equivalent to the C-terminus of NCKX5—GNNKIRGCGG) was diluted to 0.5 μg/ml using 2% SMP in PBST. The diluted antibody was incubated with the membrane for 2 hours at room temperature. The membrane was then rinsed with PBST (4×5 minutes washes). Peroxidase conjugated anti-rabbit IgG (Jackson ImmunoResearch Laboratories Inc. PA, USA) was diluted 1/4000 using 2% SMP in PBST and was incubated with the membranes for 1 hour. Finally, membranes were washed using 6×5 minute rinses with PBST. […]

[2] = system: lightly pigmented human melanocytes; assay: Quantitative assessment of melanogenesis (melanin content) after siRNA knockdown; type: cell-based; details: replicated x3, FIG. 27
Protocol: FIG. 27—Quantitative assessment of melanogenesis. A decrease in post-treatment melanin content is noted for duplex (492) in lightly pigmented human melanocytes (replicated ×3).
To each pellet of melanin+cell debris obtained in section 2), 0.5 ml of diethyl ether:ethanol (1:1 ratio) was added. Eppendorfs were vortexed vigorously for 30 seconds and centrifuged at 13000 g for 5 minutes. The ether layer was carefully removed to waste and a further 0.5 ml was added. The tubes were agitated and centrifuged as before. The liquid phase was again removed and the melanin pellets were allowed to air dry at room temperature for 10 minutes. Melanin pellets were solubilised by the addition of 200 μl of 1M NaOH+10% DMSO and incubation (with occasional agitation) at 50° C. for 1 hour. 80 μl aliquots of each sample were transferred to a 96-well microtitre plate in duplicate. OD^450 of each sample was determined and the melanin content of each fraction was calculated from a synthetic melanin standard curve, prepared as described above. In treatment comparisons, results were expressed as μg melanin per μg protein.
Primary human melanocytes isolated from lightly pigmented or darkly pigmented neonatal foreskin were obtained from Cascade Biologics. Melanocyte Growth Medium (MGM) refers to Medium 254 (Cascade Biologics) supplemented with HMGS (Cascade Biologics). […]

Substance	NCKX5 Western blot bands of approx. 42 and 44 kDa [1]	post-treatment melanin content [2]
260 (sense GAGCGCAGAGATGGAGGCATCATAA; antisense CTCGCGTCTCTACCTCCGTAGTATT; chemistry not given here; one strand is listed 3' to 5') [compound 260]	absent	
185 (sense AGGGCCACAGGAAATAGCACCCAAT; antisense TCCCGGTGTCCTTTATCGTGGGTTA; chemistry not given here; one strand is listed 3' to 5') [compound 185]	absent	
492 (sense GCACCATCCTTGGATCTGCAATTTA; antisense CGTGGTAGGAACCTAGACGTTAAAT; chemistry not given here; one strand is listed 3' to 5') [compound 492]	absent	decrease
301 (sense CGTTTACATGTTCATGGCCATATCT; antisense GCAAATGTACAAGTACCGGTATAGA; chemistry not given here; one strand is listed 3' to 5') [compound 301]	absent	
